Results published in patent publication US10945972B2, “Particulate materials” (Nektar Therapeutics, priority 2002, dated 2021).
Where a name gives a salt, the structure may show the parent alone.

Key:
[1] = Laser diffraction HELOS/RODOS of TBS (Example 8); format: physicochemical; conditions: for Sympatec D4, 3 (μm): 2 bar
Experimental: A small amount of TBS powder was analysed using a laser diffraction RODOS/VIBRI dispersing system (HELOS/RODOS, Sympatec GmbH, Clausthal-Zellerfeld, Germany). The instrument consisted of a laser sensor HELOS and a RODOS dry-powder air-dispersion system (Sympatec GmbH, Clausthal-Zellerfeld, Germany). Different measurement ranges of the laser sensor were provided by interchangeable objectives R1 (0.1-35 μm) and R2 (0.25-87.5 μm). The rate of powder dispersion was controlled by adjusting the pressure of the compressed air flow. A pressure of 2 bar was sufficient to achieve deagglomeration of primary particles without attrition.

[2] = AEROSIZER time-of-flight of TBS (Example 8); format: physicochemical
Experimental: The TBS samples were also analysed using an AEROSIZER™ (Amherst Process Instruments, Amherst, Mass., USA), provided with pulse jet disperser, the AERODISPERSER™, to introduce the powders to the instrument. The measurement range of the AEROSIZER™ is nominally from 0.2 to 200 μm of aerodynamic diameter with the standard 750 μm diameter tapered nozzle. The micronized and SEDS™ TBS samples were analyzed for 300 seconds in triplicate using normal deagglomeration conditions, feed rate (5000 particles per second) and medium shear force (0.5 psi).

[3] = Differential scanning calorimetry (Example 8); format: physicochemical; conditions: DSC, 10° C. min^−1
Experimental: Prior to sample analysis, a baseline was obtained which was used as a background. […] Temperature and enthalpy were calibrated with the standard materials indium (melting point=156.6° C.) and zinc (melting point=419.5° C.). Samples (1-10) were accurately weighed into pierced, crimped aluminium pans and heated at 10° C. min^−1 over a heating range of 25-290° C. under a nitrogen purge. A chiller unit was used in conjunction with the calorimeter to attain the lower temperatures.

[4] = Isothermal microcalorimetry, TAM with RH ramp (Example 8); format: physicochemical; conditions: 25° C., RH ramp 0 to 90% at 3% RH/hr
Experimental: A Thermal Activity Monitor (TAM, model 2277; Thermometric A B, Jrflla, Sweden) was used to measure the calorimetric heat flow (μW) vs. % RH profile of each sample. A RH-perfusion cell (Model 2255-120) accessory for the TAM was used to control RH within the sample vessel. The carrier gas, dry N2, was flowed at a constant rate (1.48 cm^3/min). All experiments were performed at 25° C. About 100 to 105 mg accurately weighed of each powder were placed in a stainless steel ampoule, attached to the RH perfusion cell, and then dried under 0% RH until a stable heat flow signal was reached (e.g., a signal within the range of −1 to +1 μW). The RH was then increased in a linear ramp from 0 to 90% over the following 30 hours (i.e., 3% RH/hr). The heat flow arising from interactions of water vapor with the solid sample was measured as a function of time. Since RH changed with time in a linear fashion, the heat flow was also known as a function of RH.
The TAM measures the total heat flow in power, P, produced from either a physical or chemical reaction. In this study, the calorimetric power is proportional to the rate of moisture sorption or desorption, crystallization, and/or other processes. Exothermic events are measured as a deflection in the positive y-axis direction. Although crystallization is an exothermic process, it can be observed as a net endothermic process. During crystallization, there is an exotherm due to crystallization and a simultaneous endotherm due to desorption of previously sorbed moisture. The TAM profile gives the resultant of these processes.

[5] = Inverse gas chromatography of TBS (Example 8); format: physicochemical; conditions: for γs^D mJm^−2: 30° C., 0% RH; for −ΔGA^SP (kJ/mol) Acetone: probe acetone; for −ΔGA^SP (kJ/mol) Ethyl acetate: probe ethyl acetate; for −ΔGA^SP (kJ/mol) Toluene: probe toluene
Experimental: An empty GC column was uniformly packed with the powder of interest (TBS). Pre-silanized commercially available straight glass columns of 30 cm length with a 3 mm internal diameter were used in this investigation. The silanation procedure was necessary to minimize active sites on the inner glass surfaces, which strongly interact with polar probes. Each column was packed at the detector end with a small amount of silanised glass wool, was clipped to a stand and powder was added through a glass funnel with the aid of a mechanical column packer (tapping) to improve powder flow and remove any air gaps. […] A. Hewlett Packard 6890 Series Gas Chromatograph (GC) (Hewlett Packard, Penna, USA) oven equipped with an autosampler was used to control the solvent temperature. The 6890 GC data acquisition system was used to record data from a thermal conductivity detector (TCD) and flame ionisation detector (FID) with the instrument modified for IGC by Surface Measurement Systems (SMS), Manchester, UK. The combination of detectors allowed sensitive analysis of both organic vapour elution and water (although RH was not raised above 0% for these experiments).
The whole system was fully automated by control software (SMS iGC Controller v1.3) and the data analyzed using SMS iGC Analysis macros. Prior to analysis, each column was equilibrated at 30° C. and 0% relative humidity (RH) for 5 hours by passing dry helium gas through the column. Helium gas was also used as the carrier gas. Hydrogen and compressed air flow rates were set at 40 and 450 ml min respectively for the FID. The chromatograph injection port was maintained at 80° C., TCD detector at 150° C. and the FID detector at 150° C. Column temperature was set at 30° C. throughout analysis. Data were obtained by flowing helium gas at 10 ml min^−1 through the sinalized glass column packed with a known weight of powdered material and injecting small amounts (concentration P/Po=0.05) of a range of probe vapors with different polarities. The retention times of the probes were measured using SMS iGC Controller v1.3 software, at infinite dilution or near zero surface coverage (equivalent to 10^−4-10^−7 μl of liquid) where retention is independent of the quantity of probe injected. For each sample, two columns were prepared and analysed by employing a method based on standard settings, which allows the precise control and measurement of experimental variables. This is essential in producing meaningful results. The data were used to calculate the dispersive and non-dispersive forces acting at TBS particle surfaces using the method developed by Schultz and co-workers (J. Schultz, L. Lavielle and C. Martin. The role of the interface in carbon fibre-epoxy composites, J. Adhesion, 23, 45-60 (1987)).

[6] = BET nitrogen adsorption specific surface area (Example 2); format: physicochemical
Experimental: Data on specific surface areas required for IGC studies were determined by BET nitrogen adsorption using a Surface Area Analyzer Coulter SA 3100 (Coulter Corp., Miami, Fla., USA). Samples were placed in glass sample holders and out-gassed with helium (purity >99.999%) at 40° C. for 16 hours before analysis. Nitrogen (purity >99.999%) was used as adsorbate and BET surface area was recorded as specific surface area of the samples. All measurements were performed in triplicate using the same batch of each material.

[7] = Inverse gas chromatography of SX powders (Example 2)
[8] = Electrostatic charge in Faraday well (Example 3); format: physicochemical
From the text: Surface charge was examined by placing weighed portions of the samples in a Faraday well to measure their electrostatic charge.

[9] = Simple adhesion test in rotated glass jar (Example 3); format: physicochemical; conditions: glass jar rotated for 5 minutes
Experimental: In this test, a small quantity of powder was weighed into a screw topped glass jar and the jar rotated for 5 minutes. The non-adhering powder was then tipped from the jar and weighed and the percentage powder adhering to the walls of the jar calculated.

[10] = Particle size by AeroSizer time-of-flight (Example 1); format: physicochemical; conditions: aerodynamic-equivalent volume mean diameter
Experimental: (§1) PSD measurements were performed using firstly, AEROSIZER® time-of-flight instrument equipped with AERO-[…]® (TSI Inc., Minneapolis. USA) and secondly, laser diffraction sensor Helos with dry-powder air-dispersion system Rodos (Sympatec GmbH. Germany). The volume mean particle diameter, VMD, was obtained for both instruments using software options. In the general case of non-spherical particles, these instruments cannot provide the exact value of VMD, however, the time-of-flight technique gives an aerodynamic-equivalent particle diameter, whereas the laser diffraction method provides the geometric projection-equivalent diameter. These diameters afford the complementary information on PSD and therefore can be used for comparative size analysis.

[11] = Particle size by Helos/Rodos laser diffraction (Example 1); format: physicochemical; conditions: geometric projection-equivalent volume mean diameter
Experimental: as §1

[12] = Inverse gas chromatography surface energy (Example 1); format: physicochemical; conditions: 303K
From the text: For TBS and FHBr powders, IGC was done using a Hewlett Packard Series 6890 instrument which was specifically modified for IGC measurements by Surface Measurement Systems Ltd (Manchester, UK). The IGC method is described in detail by Tong et al. 2001. (Tong H. H. Y., B. Y. Shekunov, P. York, A. H. L. Chow, 2001. Pharm. Res. 18, 852.) Triplicate measurements in separate packed columns were made. […] The γS^D and ΔGA values were obtained at 303K.

[13] = AEROFLOW powder avalanching (Example 8); format: physicochemical; conditions: listed as Micronized
Experimental: An AEROFLOW™ powder avalanching apparatus (Amherst Process Instruments, API, Amherst, USA) was employed to analyze the dynamic avalanching behaviour of micronized and SC processed TBS samples. The AEROFLOW™ apparatus consists of a transparent rotating drum with a port at the front. A white light source is positioned in front of the drum and a masked array of photocells is behind the drum. To measure avalanching, 50 ml of the drug powder was added to the drum, which is about 15% of its total volume to ensure good powder mixing during the operation. As the drum rotates, the powder bed is carried upwards until an unstable state is reached and an avalanche occurs.
The time between successive avalanches was recorded by the projection of the light beam through the drum onto the photocell array. The photocells generated a voltage dependent on the amount of light falling on the cells and the area of unmasked photocells shielded from the light source by the powder. The voltage output (transmitted light intensity) was recorded by a computer, which translates the output as powder movement using a technique disclosed in B. H. Kaye. Characterizing the flowability of a powder using the concepts of fractal geometry and chaos theory, Part. Part. Charact. 14: 53-66 (1997). Each TBS sample was tested in duplicate and mean avalanche time and irregularity (scatter) of avalanches were recorded.

[14] = listed as micronized terbutaline sulphate

CC(C)(C)NCC(O)c1cc(O)cc(O)c1 (stereo not shown) [TBS 1, terbutaline sulfate]
Sympatec D4, 3 (μm) [1]: 3.22 μm | Aerosizer D4, 3 (μm) [2]: 3.31 μm | Enthalpy of Fusion [3]: 127.12 J/g | Enthalpy of Fusion ([3]; listed as TBS1): 127.12 J/g | RH of thermal event in TAM profile [4]: No exothermic or endothermic peaks were observed | KA [5]: 0.761 | γs^D mJm^−2 [5]: 57.37 mJm^−2 | −ΔGA^SP (kJ/mol) Acetone [5]: 13.41 kJ/mol | −ΔGA^SP (kJ/mol) Ethyl acetate [5]: 16.65 kJ/mol | −ΔGA^SP (kJ/mol) Toluene [5]: 3.66 kJ/mol

OCc1cc(C(O)CNCCCCCCOCCCCc2ccccc2)ccc1O (stereo not shown) [G-SX, Salmeterol xinafoate]
SV (specific surface area) [6]: 10.699 | KA ([7]; acidity parameter): 0.233 | γs^D (mJ/m^2) ([7]; column at 40° C.): 36.972 mJ/m^2 | −ΔGA^SP (kJ/mol) Acetone ([7]; probe acetone): 5.454 kJ/mol | −ΔGA^SP (kJ/mol) Chloroform ([7]; probe chloroform): 1.885 kJ/mol | −ΔGA^SP (kJ/mol) Diethyl ether ([7]; probe diethyl ether): 2.958 kJ/mol | −ΔGA^SP (kJ/mol) Ethyl acetate ([7]; probe ethyl acetate): 4.739 kJ/mol | −ΔGA^SP (kJ/mol) Tetrahydrofuran ([7]; probe tetrahydrofuran): 4.854 kJ/mol

salbutamol sulphate [SEDS]
Electrostatic Charge (nC/g) [8]: −0.2 nC/g | Relative Powder Adhesion (to container walls) [9]: 1.0

salbutamol sulphate [Unprocessed]
Electrostatic Charge (nC/g) [8]: −23.1 nC/g | Relative Powder Adhesion (to container walls) [9]: 8.6

CC(C)(C)NCC(O)c1cc(O)cc(O)c1 (stereo not shown) [TSB Micronised, terbutaline sulphate, reference compound]
VMD (μm) (Time of flight) [10]: 2.7 μm | VMD (μm) (laser diffraction) [11]: 3.04 μm | γs^D (mJ/m^2) [12]: 58.61 mJ/m^2 | ΔGA (kJ/mol) Acetone ([12]; probe acetone): 12.57 kJ/mol | ΔGA (kJ/mol) Chloroform ([12]; probe chloroform): 1.79 kJ/mol | ΔGA (kJ/mol) Dioxane ([12]; probe dioxane): 15.96 kJ/mol | ΔGA (kJ/mol) Ethyl acetate ([12]; probe ethyl acetate): 16.01 kJ/mol | ΔGA (kJ/mol) Toluene ([12]; probe toluene): 3.42 kJ/mol | Sympatec D4, 3 (μm) [1, 14]: 3.0 μm | particle size, 90% less than [1, 14]: less than 5 μm | RH of thermal event in TAM profile ([4]; listed as micronized TBS): about 79 % RH | Irregularity of flow ([13]; 100 sec/rev): 1.28 s | Mean time to avalanche ([13]; 100 sec/rev): 3.62 s | Irregularity of flow ([13]; 145 sec/rev): 2.39 s | Mean time to avalanche ([13]; 145 sec/rev): 5.72 s

salbutamol sulphate [Micronised, reference compound]
Electrostatic Charge (nC/g) [8]: −42.6 nC/g | Relative Powder Adhesion (to container walls) [9]: 18.6 | Sympatec D4, 3 (μm) [1]: 3.04 μm | Aerosizer D4, 3 (μm) [2]: 2.69 μm | Enthalpy of Fusion [3]: 121.76 J/g | KA [5]: 0.892 | γs^D mJm^−2 [5]: 58.61 mJm^−2 | −ΔGA^SP (kJ/mol) Acetone [5]: 12.57 kJ/mol | −ΔGA^SP (kJ/mol) Chloroform ([5]; probe chloroform): 1.79 kJ/mol | −ΔGA^SP (kJ/mol) Dioxane ([5]; probe dioxane): 15.96 kJ/mol | −ΔGA^SP (kJ/mol) Ethyl acetate [5]: 16.01 kJ/mol | −ΔGA^SP (kJ/mol) Toluene [5]: 3.42 kJ/mol
